Data set [1] can be described thus: Pharmacokinetic parameters in SD rats. It counts as in vivo, Sprague-Dawley rats. The note with it: single oral 3 mg/kg in 30% PEG400, plasma; for CL/F / AUC(0-t) / Cmax / Tmax / half-life: Sprague-Dawley, rat; for AUC(0-t): read-out: AUC0-t (mean ± SD); for half-life: read-out: t1/2 (mean ± SD) (converted). On the procedure:
The pharmacokinetic study of each test compound was conducted in 4 Sprague-Dawley rats following a single oral administration of 3 mg/kg of the compound. The dose was prepared by dissolving test article in appropriate volume of 30% PEG400. The plasma samples were collected from the orbital plexus at 0.083, 0.25, 0.50, 1.0, 2.0, 4.0, 6.0, 8.0, 12 and 24 hours post dose, and the plasma concentrations were determined by a developed LC-MS/MS method.

A further data set has as its system SD rats. Description: Urinary glucose excretion in SD rats. It counts as in vivo. The conditions noted are these: 1 mg/kg oral. As for the experimental part: Each test compound was dissolved in 30% PEG400 and administered orally to overnight-fasted SD rats by gavage at the dose level of 1 mg/kg. Control rats were given 30% PEG400 only. One hour post dosing, glucose solution (2 g/kg, 10 mL/kg) was administered by oral gavage. Urine was collected within metabolic cages from 0 to 4 hours, and 4 to 24 hours post-dosing for urine volume and glucose measurement. Food was removed 16 hours before dosing and then provided 4 hours after dosing. Water was supplied ad libitum. The concentration of urinary glucose was determined at 4 hours and 24 hours post-dose using a biochemistry analyzer. Results were recorded for the periods 0-4 hours, 4-24 hours and 0-24 hours, and expressed as a percentage of the urinary glucose excretion (UGE) seen with reference compound A, which was run as a positive control in all experiments.

For a further data set, the system named is beagle dogs. In words: Urinary glucose excretion in beagle dogs. The class given is in vivo. As for the experimental part: Each test compound was dissolved in 10% PEG400 and administered orally to overnight-fasted beagle dogs by gavage at the dose level of 0.03 mg/kg. Control dogs were given 10% PEG400 only. One hour post dosing, glucose solution (2 g/kg, 5 mL/kg) was administered by oral gavage. Urine was collected within metabolic cages from 0 to 8 hours, and 8 to 24 hours post-dosing for urine volume and glucose measurement. Food was removed 16 hours before dosing and then provided 3 hours after dosing. Water was supplied ad libitum. The concentration of urinary glucose was determined at 8 hours and 24 hours post-dose using a biochemistry analyzer.

Data set [2] can be described thus: Pharmacokinetic parameters in Beagle dogs. It counts as in vivo. The conditions noted are these: dog, single oral 1 mg/kg in 30% PEG400, plasma; for AUC(0-t): read-out: AUC0-t (mean ± SD); for CL/F: read-out: CL/F (mean ± SD) (converted); for Cmax: read-out: Cmax (mean ± SD); for Tmax: read-out: tmax (mean ± SD). As for the experimental part:
The pharmacokinetic study of each test compound was conducted in three Beagle dogs following a single oral administration of 1 mg/kg of the compound. The dose was prepared by dissolving test article in appropriate volume of 30% PEG400. The plasma samples were collected from the cephalic vein pre-dose and at 0.25, 0.50, 1.0, 2.0, 4.0, 6.0, 8.0, 12 and 24 hours post dose, and the plasma concentrations were determined by a developed LC-MS/MS method.

Setting [3] is: separate experiment (Table 4A), 0-24 h.

What is called Cmax is the peak of the concentration-time curve. In general, Tmax refers to the time from dosing to the highest level.

Turning to `[2H]C([2H])(C)Oc1ccc(Cc2cc([C@@H]3O[C@H](CO)[C@@H](O)[C@H](O)[C@H]3O)ccc2Cl)cc1` [24a, (2S,3R,4R,5S,6R)-2-(4-chloro-3-(4-(ethoxy-1,1′-d)benzyl)phenyl)-6-(hydroxymethyl)tetrahydro-2H-pyran-3,4,5-triol], in data set [1], the CL/F was 2.4 mL/min/kg, the AUC(0-t) is 20300 ± 1610 ng·h/mL, the “Cmax (mean ± SD)” value is listed as 2923 ± 393 ng/mL and the “t1/2 (mean ± SD)” value worked out at 4.56 ± 0.64 h. Also, in data set [1], the “tmax (mean ± SD)” value turned out to be 0.88 ± 0.75 h.

Turning to `[2H]C([2H])([2H])Oc1ccc(Cc2cc([C@]3([2H])O[C@H](CO)[C@@H](O)[C@H](O)[C@H]3O)ccc2Cl)cc1` [24e, (2S,3R,4R,5S,6R)-2-(4-chloro-3-(4-(methoxy-d3)benzyl)phenyl)-6-(hydroxymethyl)tetrahydro-2H-pyran-2-d-3,4,5-triol], the “Urinary Glucose Excretion in Rats, 0-4 h, % relative to Ref A” value in the data set with SD rats (0-4 h) is listed as 162%. Besides, the “Urinary Glucose Excretion in Rats, 0-24 h, % relative to Ref A” value in the data set with SD rats (0-24 h) worked out at 101%. For the same molecule, the “Urinary Glucose Excretion in Rats, 4-24 h, % relative to Ref A” value in the data set on SD rats (4-24 h) was found to be 97%. In addition, the “Urinary Glucose Excretion in Rats, 0-4 h (mean ± SD)” value in the data set on SD rats (glucose 2 g/kg 1 h post dose, 0-4 h) stood at 236 ± 48 mg. Moreover, the “Urinary Glucose Excretion in Rats, 0-24 h (mean ± SD)” value in the data set on SD rats (glucose 2 g/kg 1 h post dose, 0-24 h) worked out at 2525 ± 266 mg. Also, the “Urinary Glucose Excretion in Rats, 4-24 h (mean ± SD)” value in the data set with SD rats (glucose 2 g/kg 1 h post dose, 4-24 h) came to 2288 ± 287 mg.

For the molecule `OC[C@H]1O[C@@H](c2ccc(Cl)c(Cc3ccc(C4CC4)cc3)c2)[C@H](O)[C@@H](O)[C@@H]1O` [Ref C, (2S,3R,4R,5S,6R)-2-(4-chloro-3-(4-cyclopropylbenzyl)phenyl)-6-(hydroxymethyl)tetrahydro-2H-pyran-3,4,5-triol, reference compound], in data set [1], the CL/F was 5.2 mL/min/kg, the highest level (Cmax) was 1050 ± 230 ng/mL, the time of peak concentration (Tmax) came to 3 ± 1.15 h and the AUC(0-t) came to 9770 ± 2180 ng·h/mL. The half-life in data set [1] was 4.28 ± 0.8 h.

Regarding `OC[C@H]1O[C@@H](c2ccc(Cl)c(Cc3ccc(OCCOCC(F)F)cc3)c2)[C@H](O)[C@@H](O)[C@@H]1O` [Ref F, (2S,3R,4R,5S,6R)-2-(4-chloro-3-(4-(2-(2,2-difluoroethoxy)ethoxy)benzyl)phenyl)-6-(hydroxymethyl)tetrahydro-2H-pyran-3,4,5-triol, reference compound], the “Urinary Glucose Excretion in Dogs, 0-8 h (mean ± SD)” value with beagle dogs (separate experiment (Table 4A), 0-8 h) is 1927 ± 307 mg. The “Urinary Glucose Excretion in Dogs, 0-24 h (mean ± SD)” value in the data set with beagle dogs (setting [3]) is recorded as 13438 ± 5237 mg. Besides, the “Urinary Glucose Excretion in Dogs, 8-24 h (mean ± SD)” value in the data set with beagle dogs (separate experiment (Table 4A), 8-24 h) was 11511 ± 5327 mg. In data set [2], the AUC(0-t) was 4920 ± 484 ng·h/mL, the CL/F is 3.17 mL/min/kg, the highest concentration (Cmax) was determined as 889 ± 65.4 ng/mL and the time of peak concentration (Tmax) was found to be 0.4 ± 0.1 h.

As to `OC[C@H]1O[C@@H](c2ccc(Cl)c(Cc3ccc(OCCOC4CC4)cc3)c2)[C@H](O)[C@@H](O)[C@@H]1O` [Ref G, (2S,3R,4R,5S,6R)-2-(4-chloro-3-(4-(2-cyclopropoxyethoxy)benzyl)phenyl)-6-(hydroxymethyl)tetrahydro-2H-pyran-3,4,5-triol, reference compound], in data set [1], the CL/F is 11.8 mL/min/kg, the peak level (Cmax) was 594 ± 85.8 ng/mL, the Tmax turned out to be 1.88 ± 1.55 h and the AUC(0-t) is 4240 ± 405 ng·h/mL. Besides, the half-life in data set [1] is 3.39 ± 0.68 h.

Consider `[2H]C([2H])(c1ccc(OC([2H])([2H])C([2H])([2H])[2H])cc1)c1cc([C@@H]2O[C@H](CO)[C@@H](O)[C@H](O)[C@H]2O)ccc1Cl` [compound 16, (2S,3R,4R,5S,6R)-2-(4-chloro-3-((4-(ethoxy-d5)phenyl)methyl-d2)phenyl)-6-(hydroxymethyl)tetrahydro-2H-pyran-3,4,5-triol], for which the “Urinary Glucose Excretion in Dogs, 0-8 h (mean ± SD)” value in the data set with beagle dogs (0.03 mg/kg oral, glucose 2 g/kg 1 h post dose, 0-8 h (Table 4)) worked out at 4362 ± 818 mg. In addition, the “Urinary Glucose Excretion in Dogs, 0-24 h (mean ± SD)” value with beagle dogs (0.03 mg/kg oral, glucose 2 g/kg 1 h post dose, 0-24 h (Table 4)) amounted to 15357 ± 2514 mg. Besides, in the data set with beagle dogs (0.03 mg/kg oral, glucose 2 g/kg 1 h post dose, 8-24 h (Table 4)), the “Urinary Glucose Excretion in Dogs, 8-24 h (mean ± SD)” value worked out at 10995 ± 1987 mg. For the same molecule, in data set [1], the CL/F was 2.3 mL/min/kg, the AUC(0-t) is 21000 ± 4370 ng·h/mL, the “Cmax (mean ± SD)” value amounted to 2683 ± 471 ng/mL and the “t1/2 (mean ± SD)” value came out at 5.70 ± 0.63 h. Moreover, the “tmax (mean ± SD)” value in data set [1] stood at 1.00 ± 0.71 h.

In the case of `[2H]C([2H])(c1ccc(C2CC2)cc1)c1cc([C@@H]2O[C@H](CO)[C@@H](O)[C@H](O)[C@H]2O)ccc1Cl` [compound 54, (2S,3R,4R,5S,6R)-2-(4-chloro-3-((4-cyclopropylphenyl)methyl-d2)phenyl)-6-(hydroxymethyl)tetrahydro-2H-pyran-3,4,5-triol], in data set [1], the CL/F is 4.4 mL/min/kg, the Cmax amounted to 1270 ± 138 ng/mL, the Tmax amounted to 2 h and the AUC(0-t) turned out to be 10600 ± 1600 ng·h/mL. The half-life in data set [1] was 6.08 ± 1.92 h.

With `[2H]C([2H])(c1ccc(OCCOCC(F)F)cc1)c1cc([C@@H]2O[C@H](CO)[C@@H](O)[C@H](O)[C@H]2O)ccc1Cl` [compound 87, (2S,3R,4R,5S,6R)-2-(4-chloro-3-((4-(2-(2,2-difluoroethoxy)ethoxy)phenyl)methyl-d2)phenyl)-6-(hydroxymethyl)-tetrahydro-2H-pyran-3,4,5-triol], the “Urinary Glucose Excretion in Dogs, 0-24 h (mean ± SD)” value with beagle dogs (setting [3]) was found to be 16858 ± 674 mg. Moreover, in data set [2], the AUC(0-t) was 8880 ± 1440 ng·h/mL, the CL/F is 1.85 mL/min/kg, the Cmax amounted to 1580 ± 282 ng/mL and the Tmax was determined as 0.6 ± 0.4 h.

As for `[2H]C([2H])(COc1ccc(Cc2cc([C@@H]3O[C@H](CO)[C@@H](O)[C@H](O)[C@H]3O)ccc2Cl)cc1)OC1CC1` [compound 95, (2S,3R,4R,5S,6R)-2-(4-chloro-3-(4-(2-cyclopropoxy(ethoxy-2,2-d2))benzyl)phenyl)-6-(hydroxymethyl)tetrahydro-2H-pyran-3,4,5-triol], in data set [1], the CL/F is 9.2 mL/min/kg, the concentration peaked (Cmax) at 710 ± 76.4 ng/mL, the Tmax amounted to 2.13 ± 1.44 h and the AUC(0-t) worked out at 5240 ± 328 ng·h/mL. Further, in data set [1], the half-life was 4.83 ± 1.42 h.

Source of the values: US9061060B2, “Deuterated benzylbenzene derivatives and methods of use” (Theracos Inc., priority 2008, dated 2015).
